Data set [1] has as its system SH-SY5Y cells. Kind of data set: Toxicity in neuronal SH-SY5Y cells, MTT assay. Type of data set: cell-based. The settings on record: for pIC50: Homo sapiens, read-out: IC50 (concentration resulting in 50% inhibition of neuronal viability), 24 h, 2.5-80 μM; for toxic effects: 24 h, at 80 μM. As for the experimental part: […]. Human neuronal SH-SY5Y cells were routinely grown in Dulbecco’s modified Eagle’s Medium supplemented with 10% fetal bovine serum, 2 mM L-glutamine, 50 U/mL penicillin and 50 µg/mL streptomycin at 37 °C in a humidified incubator with 5 % CO2.
SH-SY5Y cells were seeded in a 96-well plate at 2 × 10^4 cells/well, incubated for 24 h and then treated with the compounds for 24 h. Cell viability, in terms of mitochondrial metabolic function, was evaluated by 3-(4,5-dimethylthiazol-2-yl)-2,5-diphenyltetrazolium bromide (MTT) test, as previously described.
In general terms: Formazan colour is commonly taken as a measure of viable cells.

Data set [2] deals with SH-SY5Y cells. The data set is described as follows: ROS formation induced by t-BOOH in SH-SY5Y cells, H2DCF-DA probe. It is filed as cell-based, human. Also noted: key to Direct Antioxidant Activity in SH-SY5Y Cells (percentage inhibition of ROS formation induced by t-BOOH): In: inactive. The settings on record: for inhibition at 10 µM: Homo sapiens, SH-SY5Y, chronic treatment 24 h with compound 10 μM, then t-BOOH 100 μM for 30 min, read-out: Indirect Antioxidant Activity in SH-SY5Y Cells (percentage inhibition of ROS formation induced by t-BOOH); for Direct Antioxidant Activity in SH-SY5Y Cells (percentage inhibition of ROS formation induced by t-BOOH): simultaneous treatment 30 min, compound 10 µM and t-BOOH 100 μM. As for the experimental part:
In parallel, we evaluated the antioxidant activity of the compounds not associated with toxicity (Figure 5) against the ROS formation induced by t-BOOH in SH-SY5Y cells. To appraise the direct and indirect antioxidant activity, the SH-SY5Y cells were simultaneously treated for 30 min with 3a, 3b and 3e (10 µM) and t-BOOH (100 µM) or chronically treated for 24 h (the time necessary to activate the endogenous antioxidant system) with 3a, 3b and 3e (10 µM) and then exposed to t-BOOH (100 µM) for 30 min, respectively. Then, the intracellular ROS formation was detected by using the fluorescent probe 2′,7′-dichlorodihydrofluorescein diacetate (H2DCF-DA).
(§1) Human neuronal SH-SY5Y cells were routinely grown in Dulbecco’s modified Eagle’s Medium supplemented with 10% fetal bovine serum, 2 mM L-glutamine, 50 U/mL penicillin and 50 µg/mL streptomycin at 37 °C in a humidified incubator with 5 % CO2.
SH-SY5Y cells were seeded in a 96-well plate at 2 × 10^4 cells/well, incubated for 24 h, and then treated with compounds for 24 h before or during the treatment of 30 min with t-BOOH. ROS formation was evaluated by using the fluorescent probe H2DCF-DA, as previously described.

Data set [3] deals with SH-SY5Y cells. The data set is described as follows: Intracellular GSH levels in SH-SY5Y cells, MCB assay. As to conditions: 24 h, 2.5–10 μM. Type of data set: cell-based, human. As for the experimental part:
Among the endogenous antioxidants in the central nervous system, glutathione (GSH) plays an important role to maintain the redox balance by directly interacting with ROS formed during the physiological metabolic processes. […] We therefore evaluated the ability of compounds 3a, 3b and 3e to modulate the intracellular GSH levels in SH-SY5Y cells, after 24 h of treatment using the fluorescent probe monochlorobimane (MCB).
as §1
SH-SY5Y cells were seeded in a black 96-well plate at 2 × 10^4 cells/well, incubated for 24 h and then treated with the compounds for 24 h. GSH levels were evaluated by using monochlorobimane, as previously described

The target of data set [4] is T1, EeAChE (Electrophorus electricus, UniProt O42275).
T1 construct: purified from Electrophorus electricus; purchased Sigma-Aldrich type V-S; host or cells: Electrophorus electricus (natural source)
Kind of data set: AChE inhibition, modified Ellman kinetic assay. Type of data set: biochemical. As for the experimental part:
(§2) For in vitro evaluation of inhibition of EeAChE (EC3.1.1.7, type V-S, purified from Electrophorus electricus) and eqBuChE (EC 3.1.1.8, purified from equine serum, both from Sigma-Aldrich), the kinetic assay was performed according to the Ellman method modified using 96-well plates as previously described. […]. Progression curves were acquired using the Softmax PRO 5.0 software (Molecular Devices) from which the maximum hydrolysis velocity was calculated and the analysis performed with the Prism 5 software (GraphPad Inc., La Jolla, CA, USA). […]. The solvent had no detectable effect at the highest concentration used (0.2% v/v).
In general terms: Ellman's reagent forms a yellow product with free thiols.

In data set [5] the test system is SH-SY5Y cells. Kind of data set: Neuroprotective activity against Aβ42 oligomers in SH-SY5Y cells, MTT assay. Type of data set: cell-based, human. The settings on record: 3e 5 µM with OAβ42 10 µM, 4 h. As for the experimental part:
Given the best antioxidant profile of compound 3e we also evaluated its ability to protect the SH-SY5Y cells against the neurotoxicity elicited by Aβ42 peptide oligomers (OAβ42), soluble aggregates of Aβ peptides involved in the pathogenesis of AD.
as §1
Aβ42 peptide (AnaSpec, Fremont, CA, USA) was first dissolved in 1,1,1,3,3,3-hexafluoroisopropanol to 1 mg/mL, sonicated, incubated at room temperature for 24 h, and lyophilised to obtain an unaggregated Aβ42 peptide film that was solubilised with DMSO and stored at −20 °C until use. The aggregation of Aβ42 peptide into oligomers was performed as previously described. SH-SY5Y cells were seeded in a 96-well plate at 3 × 10^4 cells/well, incubated for 24 h, and treated with the compounds for 24 h. The cells were then treated for 4 h with 3e [5 μM] and OAβ1-42 [10 μM]. The neuroprotective activity, in terms of increase in intracellular MTT granules, was measured by MTT assay, as previously described.

The target of data set [6] is T2, eqBuChE (Equus caballus, UniProt P81908).
T2 construct: purified from equine serum; purchased Sigma-Aldrich; host or cells: equine serum (natural source)
The data set is described as follows: BuChE inhibition, modified Ellman kinetic assay. It is filed as biochemical. As for the experimental part: as §2

pIC50: −log10 of the molar value.

T1 sequence (O42275 24-633): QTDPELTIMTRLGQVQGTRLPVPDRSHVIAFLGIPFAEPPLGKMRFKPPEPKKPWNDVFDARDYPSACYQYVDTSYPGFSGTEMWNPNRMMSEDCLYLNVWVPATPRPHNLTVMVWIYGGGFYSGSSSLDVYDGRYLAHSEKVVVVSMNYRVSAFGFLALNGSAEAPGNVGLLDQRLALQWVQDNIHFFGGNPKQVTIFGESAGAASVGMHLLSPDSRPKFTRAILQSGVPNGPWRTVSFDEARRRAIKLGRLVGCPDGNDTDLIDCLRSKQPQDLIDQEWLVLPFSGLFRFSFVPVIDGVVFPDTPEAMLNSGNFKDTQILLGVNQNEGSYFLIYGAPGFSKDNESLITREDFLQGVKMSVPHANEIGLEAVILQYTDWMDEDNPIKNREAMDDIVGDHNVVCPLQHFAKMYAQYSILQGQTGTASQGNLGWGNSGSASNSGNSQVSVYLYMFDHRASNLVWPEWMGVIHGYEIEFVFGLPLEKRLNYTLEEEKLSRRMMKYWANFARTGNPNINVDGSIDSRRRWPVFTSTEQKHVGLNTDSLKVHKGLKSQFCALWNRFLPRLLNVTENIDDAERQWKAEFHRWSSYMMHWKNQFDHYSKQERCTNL
T2 sequence (P81908 whole entry): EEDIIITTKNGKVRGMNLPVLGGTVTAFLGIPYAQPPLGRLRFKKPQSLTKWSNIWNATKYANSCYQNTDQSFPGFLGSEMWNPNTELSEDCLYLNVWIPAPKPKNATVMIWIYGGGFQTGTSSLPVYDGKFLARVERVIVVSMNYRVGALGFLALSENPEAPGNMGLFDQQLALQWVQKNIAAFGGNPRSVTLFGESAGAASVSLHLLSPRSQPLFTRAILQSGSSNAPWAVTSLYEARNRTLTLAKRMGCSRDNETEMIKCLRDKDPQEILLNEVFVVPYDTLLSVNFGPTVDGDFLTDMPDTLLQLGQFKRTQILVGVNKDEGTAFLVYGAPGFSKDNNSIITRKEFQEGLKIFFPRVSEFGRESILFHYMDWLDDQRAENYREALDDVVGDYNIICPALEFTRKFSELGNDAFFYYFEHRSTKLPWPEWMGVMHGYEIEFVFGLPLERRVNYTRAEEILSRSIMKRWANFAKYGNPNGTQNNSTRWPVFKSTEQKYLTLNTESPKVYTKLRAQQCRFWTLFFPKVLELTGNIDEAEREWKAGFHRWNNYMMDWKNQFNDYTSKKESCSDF

On to `COc1cc(Cn2cc(C(=O)N/N=C/c3cccc(Cl)c3)nn2)ccc1O` [3i, (E)-N’-(3-Chlorobenzylidene)-1-(4-hydroxy-3-methoxybenzyl)-1H-1,2,3-triazole-4-carbohydrazide], for which, in data set [1], the pIC50 is 4.98.

Regarding `COc1ccc(/C=N/NC(=O)c2cn(Cc3ccc(O)c(OC)c3)nn2)cc1` [3c, (E)-1-(4-Hydroxy-3-methoxybenzyl)-N’-(4-methoxybenzylidene)-1H-1,2,3-triazole-4-carbohydrazide], the pIC50 in data set [1] is 4.99.

For `COc1cc(Cn2cc(C(=O)N/N=C/c3ccc(O)cc3)nn2)ccc1O` [3a, (E)-1-(4-Hydroxy-3-methoxybenzyl)-N’-(4-hydroxybenzylidene)-1H-1,2,3-triazole-4-carbohydrazide], in data set [1], the toxic effects result is listed as “did not show any toxic effects” and the pIC50 is less than 4.10. Moreover, in data set [2], the inhibition at 10 µM is 20.6% and the “Direct Antioxidant Activity in SH-SY5Y Cells (percentage inhibition of ROS formation induced by t-BOOH)” value is “In ^d”. The “effect on intracellular GSH levels” value in data set [3] was “increased the GSH levels”.

With `COc1cc(/C=N/NC(=O)c2cn(Cc3ccc(O)c(OC)c3)nn2)ccc1O` [3e, (E)-1-(4-Hydroxy-3-methoxybenzyl)-N’-(4-hydroxy-3-methoxybenzylidene)-1H-1,2,3-triazole-4-carbo-hydrazide], the figures for the pIC50 in data set [4] and in data set [1] were 4.58 and less than 4.10, respectively. Further, the inhibition at 30 µM in data set [4] (read-out: inhibition of the AChE activity at the screening concentration) was greater than 50%. In data set [5], the “effect on loss of neuronal viability induced by OAβ42” value was “significantly reduced the loss of neuronal viability”. Also, in data set [6], the “ability to inhibit BuChE” value is reported as “no relevant activity was detected”. In addition, the toxic effects entry in data set [1] is reported as “did not show any toxic effects”. For the same molecule, the inhibition at 10 µM in data set [2] is 35.2%. Further, the “effect on intracellular GSH levels” value in data set [3] is “increased the GSH levels”.

In the case of `COc1cc(Cn2cc(C(=O)N/N=C/c3cc(O)cc(O)c3)nn2)ccc1O` [3b, (E)-N’-(3,5-Dihydroxybenzylidene)-1-(4-hydroxy-3-methoxybenzyl)-1H-1,2,3-triazole-4-carbohydrazide], in data set [1], the toxic effects entry is given as “did not show any toxic effects” and the pIC50 is less than 4.10. In data set [2], the inhibition at 10 µM is 14.1% and the “Direct Antioxidant Activity in SH-SY5Y Cells (percentage inhibition of ROS formation induced by t-BOOH)” value is “In”. In addition, the “effect on intracellular GSH levels” value in data set [3] is “increased the GSH levels”.

On to `COc1cc(Cn2cc(C(=O)N/N=C/c3ccc(Cl)cc3)nn2)ccc1O` [3h, (E)-N’-(4-Chlorobenzylidene)-1-(4-hydroxy-3-methoxybenzyl)-1H-1,2,3-triazole-4-carbohydrazide], for which the pIC50 in data set [1] is 5.52.

For `COc1cc(/C=N/NC(=O)c2cn(Cc3ccc(O)c(OC)c3)nn2)cc(OC)c1` [3d, (E)-N’-(3,5-Dimethoxybenzylidene)-1-(4-hydroxy-3-methoxybenzyl)-1H-1,2,3-triazole-4-carbohydrazide], the pIC50 in data set [1] was 4.17.

In the case of `COc1cc(Cn2cc(C(=O)N/N=C/c3ccccc3F)nn2)ccc1O` [3l, (E)-N’-(2-Fluorobenzylidene)-1-(4-hydroxy-3-methoxybenzyl)-1H-1,2,3-triazole-4-carbohydrazide], in data set [1], the pIC50 is 4.16.

`COc1cc(Cn2cc(C(=O)N/N=C/c3ccc(F)cc3)nn2)ccc1O` [3k, (E)-N’-(4-Fluorobenzylidene)-1-(4-hydroxy-3-methoxybenzyl)-1H-1,2,3-triazole-4-carbohydrazide]: the pIC50 in data set [1] was 5.44.

Turning to `COc1cc(Cn2cc(C(=O)N/N=C/c3ccccc3Cl)nn2)ccc1O` [3j, (E)-N’-(2-Chlorobenzylidene)-1-(4-hydroxy-3-methoxybenzyl)-1H-1,2,3-triazole-4-carbohydrazide], in data set [1], the pIC50 was 4.55.

For the molecule `COc1cc(Cn2cc(C(=O)N/N=C/c3ccccc3)nn2)ccc1O` [3f, (E)-N’-Benzylidene-1-(4-hydroxy-3-methoxybenzyl)-1H-1,2,3-triazole-4-carbohydrazide], in data set [1], the pIC50 is 4.20.

Turning to `COc1cc(Cn2cc(C(=O)N/N=C/c3ccc(N4CCCCC4)cc3)nn2)ccc1O` [3g, (E)-1-(4-Hydroxy-3-methoxybenzyl)-N’-(4-(piperidin-1-yl)benzylidene)-1H-1,2,3-triazole-4-carbohydrazide], the pIC50 in data set [1] was 4.99.

`COc1cc(Cn2cc(C(=O)N/N=C/c3cccc(F)c3)nn2)ccc1O` [3m, (E)-N’-(3-Fluorobenzylidene)-1-(4-hydroxy-3-methoxybenzyl)-1H-1,2,3-triazole-4-carbohydrazide]: in data set [1], the pIC50 was 4.37.
